Key:
platelet adhesion = conditions: long-term aspirin therapy; cited from earlier work
platelets = assay: Platelet Reactivity Test (PRT), time to platelet mass formation in whole blood of volunteers; type: in vivo, human; conditions: after taking aspirin, most volunteers; without aspirin the test concludes in less than 100 seconds
Description: The PRT test is used to activate platelet gel formations using a small (20 microliter) whole blood sample to help identify proper platelet function in the absence of platelet drug therapy and to identify inhibited platelet function in the presence of platelet drug therapy. The test is performed by running a small quantity of blood through a channel restriction that will induce the formation of platelet gels and trap them in a focused area similar to the way platelets are activated and focused in the body. Cartridge 150 has capillary tube inlet 160 that can receive a capillary tube filled with blood. A capillary tube filled with blood can be attached to capillary tube port 200. Conduit 230 leads from capillary tube port 200 to junction 270 and junction 270 splits into conduit 250 and passageways 240, 260. Conduit 250 and passageways 240, 260 include overflow wells 280. Conduit 250 and passageways 240, 260 lead to ports 180, 170, 190, respectively. […] In a preferred embodiment, the cartridge 150 has a bar code that is read by the instrument 400. […] The instrument 400 will report the average of the platelet reactivity times determined from the blood in passageways 240 and 260. […] If the two platelet reactivity times determined from the blood in passageways 240 and 260 are greatly different, the instrument will indicate that the test is invalid. […]

## CC(=O)Oc1ccccc1C(=O)O [aspirin]
Platelet adhesion
  individuals who do not achieve inhibition of platelet adhesion: up to 30%
platelets
  PRT (platelet reactivity time): greater than 150 seconds

— patent publication US20100099130A1, “METHODS AND DEVICES FOR MONITORING PLATELET FUNCTION” (PLACOR INC., priority 2006, published 2010)
